Results published in patent publication US5510353A, “Certain aminoguanidine compounds, pharmaceutical compositions containing them and their use in treating gastrointestinal motility disorders and disorders associated with cephalic pain” (Sandoz Ltd., priority 1991, dated 1996).

Tests used:
[1] = system: isolated guinea-pig ileum; experiment: Peristaltic reflex in the isolated guinea-pig ileum; format: cell-based; conditions: Cavia porcellus, 0.25 h, 15 min contact, read-out: pEC50 value, stimulatory effect on the peristaltic activity (converted)
Procedure: Furthermore, the stimulatory effect on gastrointestinal motility of compounds of the invention is also indicated e.g. by their effects on the peristaltic reflex in the isolated guinea-pig ileum.
Male guinea-pigs, 200-400 g are stunned and bled. Segments of terminal ileum, 4-5 cm long, are removed and suspended as described by Trendelenburg in Arch. Exp. Path. Pharmakol., 81, 55-129 (1917), in a 20 ml organ bath under an initial load of 1 g. The tissue is bathed with a modified Krebs solution (NaCl 118.6; CaCl2 2.7; KCl 4.7; KH2 PO4 1.2; MgSO4 0.1; NaHCO3 25.0; and glucose 5.6 mM), maintained at 37° C. and bubbled with 5% CO2 in oxygen. Peristalsis is elicited for 30 s by increasing the intraluminal pressure from zero by 1 to 4 cm H2 O. Measurements are made of longitudinal muscle responses by using an isotonic force-displacement transducer and of circular muscle activity by employing a pressure transducer. The area under the curve (AUG) of peristaltic contractions is determined and concentration response curves are established by plotting the AUC representing the circular and longitudinal muscle activity. Each preparation is used as its own control, taking the peristaltic activity before the administration of the compounds to be tested as 100%. Compounds to be tested are added to the serosal side and are left in contact with the tissue for 15 min. In this test compounds of the invention have a stimulatory effect on the peristaltic activity at concentrations of the order of from about 10^-10 M to 10^-7 M.

[2] = system: small intestine of Beagle dogs; experiment: Myoelectric activity of the small intestine in Beagle dogs (implanted electrodes); format: in vivo; conditions: Canis lupus familiaris, sc, read-out: threshold dose for stimulating myoelectric activity
Procedure: Monopolar electrodes are implanted on the serosal side of the gut wall along the small intestine of Beagle dogs. From these electrodes, signals are fed into a preamplifier and filtered for the registration of low and high frequency potentials, in order to separate slow waves from spikes. The number of spike bursts occuring in 2 min. periods are determined. From this the following data are extracted: duration of phase I--III, interval between 2 consecutive phase III blocks, and propagation velocity. One or two cycles are recorded prior to drug administration which is done subcutaneously 10-15 min after a Phase III has passed the most distal electrodes. Control experiments are performed routinely by means of solvent administration. In fed dogs, the number of spikes per 30 min. is determined additionally. In this test the compounds of the invention stimulate myoelectric activity at dosages of the order of from about 0.001 to 10 mg/kg s.c.

[3] = biological target: T1, 5-HT4 receptors (Cavia porcellus, UniProt O70528); experiment: Antagonism of 5-HT-induced contraction, longitudinal muscle strip of guinea pig ileum (5-HT4); format: cell-based; conditions: methysergide 0.1 μM present, read-out: pA2 value (converted)
T1 construct: The isolated longitudinal muscle of the guinea pig ileum with its adhering myenteric plexus; from tissue; host or cells: guinea pig ileum longitudinal muscle strip with adhering myenteric plexus
Excerpt: The isolated longitudinal muscle of the guinea pig ileum with its adhering myenteric plexus is a well established model which permits investigations of the mechanism of action of various neurotransmitters.
Male guinea pigs (200-400 g) are killed by a blow on the head and exsanguinated. A length of small intestine is removed about 2 cm from the ileo-caecal valve. The ileum is stretched over a glass rod and the mesentery is carefully removed. By strocking tangentially away from the mesenteric attachment with a wad of cotton wool, the longitudinal muscle layer is separated and stripped from the underlying circular muscle. Longitudinal muscle strips, 3-4cm length, are mounted in a 10 ml organ bath containing Tyrode solution at 37° C. and bubbled with a 5% carbon dioxide in oxygen. The Tyrode solution is of the following composition (mmol/1): NaCl 137.0; CaCl2 1.8; KCl 2.7; MgCl2 1.05; NaHCO3 11.9; NaHPO4 0.4; glucose 5.6; and methysergide 0.1 μM. The strips are maintained under a resting tension of 500 mg. Contractions are recorded with an isotonic pendulum lever. After equilibration for 30 min a set concentration of carbachol is applied in 10 min intervals until a consistent reaction is achieved.
Non-cumulative concentration-response curves for 5-HT are established by adding increasing concentrations of the agonist to the organ bath at intervals of at least 15 min. […] Each concentration is left in contact with the tissue for 1 min. Each strip is only used to record two concentration-response curves; the first for 5-HT alone and the second for 5-HT in the presence of a set concentration of antagonist, each strip thus serving as its own control. Antagonists are allowed to preequilibrate for at least 10 min prior to addition of 5-HT. The contractions expressed as percentage of the maximal response to 5-HT obtained from several preparations are plotted as mean values in order to obtain log-concentration-response curves. Inhibition constants are expressed in the form of pA2 values which are graphically determined according to conventional methods (Arunlakshana et al, 1959, McKay 1978). […]

[4] = biological target: 5HT-1D receptors; experiment: Binding affinity to 5HT-1D receptors (Waeber et al.); conditions: 5HT-1D receptor binding
Excerpt: Compounds of the invention also have an agonist effect on 5HT-1D receptors. Their binding affinity to 5HT-1D receptors has been determined e.g. according to the method disclosed by C. Waeber et al., Naunyn-Schmiedeberg,s Arch. Pharmacol., 337, 595-601 (1988).

[5] = system: 5-HT1D receptor; experiment: Contraction of pig anterior cerebral artery segments (5-HT1D mediated); format: cell-based; conditions: vascular contraction, ketanserin 10^-7 M present
Procedure: Anterior cerebral arteries are excised from pig brains obtained from the local slaughterhouse. Circular segments of 3-4 mm length are mounted between two L-shaped metal prongs and placed in temperature-controlled (37° C.) organ baths filled with Krebs solution that is continuously gassed with 5% CO2 in oxygen. Agonist-induced vascular contractions are measured isometrically. In order to measure only 5-HT1D receptor mediated effects, ketanserin (10^-7 M), which prevents contractions via 5-HT2 receptors, is added to the bath solution. Compounds of the invention induce vascular contractions at a concentration of from 10^-10 to 10^-5 M, particularly 10^-9 to 10^-7 M. In this test, it has been determined that compound of Example 63 has a pD2 value of 9.0.

T1 sequence (O70528 whole entry): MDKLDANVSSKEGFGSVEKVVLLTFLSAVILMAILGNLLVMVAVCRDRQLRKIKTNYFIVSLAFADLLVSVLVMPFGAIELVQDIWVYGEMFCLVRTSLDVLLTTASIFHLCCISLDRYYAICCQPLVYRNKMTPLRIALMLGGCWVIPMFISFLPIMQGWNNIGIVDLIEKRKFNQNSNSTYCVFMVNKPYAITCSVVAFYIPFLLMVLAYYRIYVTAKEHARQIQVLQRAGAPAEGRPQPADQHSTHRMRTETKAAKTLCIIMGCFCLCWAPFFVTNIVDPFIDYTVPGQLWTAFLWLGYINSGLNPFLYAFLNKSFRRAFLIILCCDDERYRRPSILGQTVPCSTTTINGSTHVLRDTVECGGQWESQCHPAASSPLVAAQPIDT

EC50 [1] [nM] | Kb [3] [nM] | SMILES | further results
1 |  | CCCCCNC(=N)NN=Cc1c[nH]c2ccc(OC)cc12 [Example 13] | minimal effective dose [2]: 0.03 mg/kg
> 100 |  | COc1cc(N)c(Cl)cc1C(=O)NC1CCN(CCCOc2ccc(F)cc2)CC1OC (stereo not shown) [Cisapride, reference compound] | minimal effective dose [2]: 0.3 mg/kg

Continued, compound first:

SMILES | EC50 [1] [nM] | Kb [3] [nM] | further results
CCCCCN(C)C(=N)NN=Cc1c[nH]c2c(C)cc(O)cc12 [Example 97] |  | 5.01 | 
CCCCCNC(=N)NN=Cc1c[nH]c2ccc(C(N)=O)cc12 [Example 63] |  |  | pKD value [4]: 8.55; pD2 value [5]: 9.0
CCN(CC)CCNC(=O)c1cc(Cl)c(N)cc1OC [metoclopramide] | 2000 |  | 
CCCCCNC(=N)NN=Cc1cn(CC)c2ccc(O)cc12 [Example 90] |  | 10 | 
CCCCCNC(=N)NN=Cc1c[nH]c2c(C)cc(O)cc12 [Example 89] |  | 7.94 | 
